Experimental data from US20050281850A1, “Cosmetic/dermatological inverse emulsions containing calcitriol and clobetasol 17-propionate” (GALDERMA S.A., priority 2004, published 2005).

Key:
Format in all cases: physicochemical
[1] = Stability of calcitriol in ethanol (HPLC assay against reference substance); details: 30 ppm in absolute ethanol, 0.02% BHT
From the text: (§1) a) Stability of Calcitriol in Ethanol: 30 ppm solution of calcitriol in qs 100% of absolute ethanol in the presence of 0.02% BHT. HPLC assay technique against reference substance. At the initial time (T0), it is considered that the composition comprises 100% calcitriol. Calcitriol concentration measured as % relative to T0: […]

[2] = Stability of calcitriol in Miglyol 812 (HPLC assay against reference substance); details: for Calcitriol concentration measured as % relative to T0: 30 ppm in Miglyol 812, 0.4% BHT
From the text: as §1, with “b)” for “a)”, “Miglyol 812 (Caprylic/-15 Capric Triglycerides)” for “Ethanol:”, “Miglyol 812” for “of absolute ethanol”, “0.4%” for “0.02%”

[3] = Stability of calcitriol in Cetiol SN (HPLC assay against reference substance); details: for Calcitriol concentration measured as % relative to T0: 30 ppm in Cetiol SN, 0.4% BHT
From the text: as §1, with “c)” for “a)”, “Cetiol SN (Cetearyl Isononanoate):” for “Ethanol:”, “Cetiol SN (cetearyl isononanoate)” for “of absolute ethanol”, “0.4%” for “0.02%”

- Calcitriol concentration measured as % relative to T0 ([1]; +4° C., T1 week): 97.7%
- Calcitriol concentration measured as % relative to T0 ([1]; +4° C., T2 weeks): 98.6%
- Calcitriol concentration measured as % relative to T0 ([1]; +4° C., T3 weeks): 98.1%
- Calcitriol concentration measured as % relative to T0 ([1]; +4° C., T4 weeks): 97.7%
- Calcitriol concentration measured as % relative to T0 ([1]; +30° C., T2 weeks): 93.4%
- Calcitriol concentration measured as % relative to T0 ([1]; +30° C., T4 weeks): 93.0%
- Calcitriol concentration measured as % relative to T0 ([1]; −18° C., T1 week): 100.9%
- Calcitriol concentration measured as % relative to T0 ([1]; −18° C., T2 weeks): 100.5%
- Calcitriol concentration measured as % relative to T0 ([1]; −18° C., T3 weeks): 99.5%
- Calcitriol concentration measured as % relative to T0 ([1]; −18° C., T4 weeks): 99.5%
- Calcitriol concentration measured as % relative to T0 ([2]; +4° C., T2 weeks): 98.3%
- Calcitriol concentration measured as % relative to T0 ([2]; +4° C., T4 weeks): 105.2%
- Calcitriol concentration measured as % relative to T0 ([2]; +40° C., T2 weeks): 91%
- Calcitriol concentration measured as % relative to T0 ([2]; +40° C., T4 weeks): 93.8%
- Calcitriol concentration measured as % relative to T0 ([2]; RT, T2 weeks): 95.1%
- Calcitriol concentration measured as % relative to T0 ([2]; RT, T4 weeks): 98.0%
- Stability of calcitriol in Miglyol 812 (in words) ([2]; in Miglyol 812): good stability
- Calcitriol concentration measured as % relative to T0 ([3]; +4° C., T2 weeks): 98.6%
- Calcitriol concentration measured as % relative to T0 ([3]; +4° C., T4 weeks): 98.1%
- Calcitriol concentration measured as % relative to T0 ([3]; +40° C., T2 weeks): 99.0%
- Calcitriol concentration measured as % relative to T0 ([3]; +40° C., T4 weeks): 98.9%
- Calcitriol concentration measured as % relative to T0 ([3]; RT, T2 weeks): 98.7%
- Calcitriol concentration measured as % relative to T0 ([3]; RT, T4 weeks): 98.4%
- Stability of calcitriol in Cetiol SN (in words) ([3]; in Cetiol SN): good stability
Structure (SMILES): C=C1/C(=C\C=C2/CCC[C@]3(C)[C@@H]([C@H](C)CCCC(C)(C)O)CC[C@@H]23)C[C@@H](O)C[C@@H]1O [calcitriol]
